Test results from patent US20060003016A1, “Therapeutic method for endolymphatic hydrops associated diseases” (priority 2004, published 2006).
Structures can show the parent of a compound that is named as a salt.

Key:
rats = conditions: arginine-vasopressin induced rats; cited from earlier work
guinea pig = conditions: after administration of AVP; cited from earlier work
[1] = test system: patients with Meniere's disease and endolymphatic hydrops associated diseases; assay: Clinical course of vertigo, aural fullness, tinnitus and hearing in clinical cases; type: in vivo, patient
Excerpt: Therapeutic method of our invention is always performed after general examinations and standard laboratory examinations, such as blood pressure, plasma electrolytes, and urine osmolality. After consideration of body weight, age, sex, and life style, we directed the patients to take adequate water (see below) every day in combination with short-term application with isosorbite®. During the initial stage of the water intake method, recommended volume of water intake for adult male, weighing 60 kg, is calculated as 1.8-2.1 l per day according to the following formula (F 1). […] They seem to be nervous and live under the very strong psychological pressure.
The present invention is explained in detail by mentioning clinical cases.

[2] = case 3, isosorbide 63 g t.d.s. and difenidol hydrochloride 75 mg t.d.s. together for 6 days, July 28, 2000
[3] = case 3, isosorbide 63 g t.d.s. and difenidol hydrochloride 75 mg t.d.s. together for 14 days, March 2000

**Q.** Which “ABR (auditory brainstem evoked response) threshold” value (rats) does the source give for `NC(=O)CC[C@@H]1NC(=O)[C@H](Cc2ccccc2)NC(=O)[C@H](Cc2ccc(O)cc2)NC(=O)[C@@H](N)CSSC[C@@H](C(=O)N2CCC[C@H]2C(=O)N[C@@H](CCCN=C(N)N)C(=O)NCC(N)=O)NC(=O)[C@H](CC(N)=O)NC1=O` [AVP, arginine vasopressin] here?
**A.** increase in ABR (auditory brainstem evoked response) threshold

**Q.** What about the endolymphatic hydrops (guinea pig) of the same molecule?
**A.** endolymphatic hydrops was produced

**Q.** With `CCCCC[C@H](O)/C=C/[C@H]1[C@H](O)CC(=O)[C@@H]1CCCCCCC(=O)O` [PGE1, reference compound] as the molecule, how does the “low frequency sensorineural hearing loss of the left ear” value ([1]; case 5, steroid, VB12 and vasodilator (prostaglandin:PGE1) together) read?
**A.** no improvement

**Q.** With `OC(CCCN1CCCCC1)(c1ccccc1)c1ccccc1` [difenidol hydrochloride, reference compound] as the molecule, how does the left hearing [1, 2] read?
**A.** improved to normal range

**Q.** And the left hearing [1, 3]?
**A.** improved

**Q.** Which results are given for `O[C@@H]1CO[C@H]2[C@@H]1OC[C@@H]2O` [isosorbide, reference compound]?
**A.** time until rotatory vertigo was improved ([1]; case 1, attack of Jan. 24, 2003, isosorbide 63 g t.d.s. with water intake 2 lit./day continued): ≤ 3 h; right ear hearing ([1]; case 1, isosorbide 63 g t.d.s. for one week, reexamination Dec. 6, 2002): improved to the normal level; left hearing [1, 2]: improved to normal range; left hearing [1, 3]: improved; right hearing ([1]; case 4, isosorbide 63 g t.d.s. orally for 2 weeks): no improvement
